# Biological target: T1, HIS-tagged RORγ-LBD (Homo sapiens, UniProt P51449)
# T1 construct: HIS-tagged RORγ-LBD was recombinantly expressed in SF9 cells using a baculovirus expression system; made in house; host or cells: SF9 cells, baculovirus; crude lysate used
# T1 sequence (P51449 269-508 limits assumed): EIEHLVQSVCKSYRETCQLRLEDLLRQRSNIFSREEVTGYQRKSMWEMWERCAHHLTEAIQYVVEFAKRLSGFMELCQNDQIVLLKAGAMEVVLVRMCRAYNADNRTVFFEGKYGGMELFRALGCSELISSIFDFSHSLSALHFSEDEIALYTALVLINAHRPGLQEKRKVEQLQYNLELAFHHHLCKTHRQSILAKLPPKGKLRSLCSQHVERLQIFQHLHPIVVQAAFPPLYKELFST
# Assay: TR-FRET assay (Protocol B), RORγ-LBD lysate / biotinylated SRC1-2 LXXLL peptide
# Assay type: biochemical
# Details: unpurified RORγ-LBD lysate ~10 nM, SRC1-2 peptide 450 nM
# Source text: Activation of RORgammaT activity can be measured using e.g. biochemical TR-FRET assay. In such an assay, interaction of cofactor-derived peptides with human RORgammaT-Ligand Binding Domain (LBD) can be measured.
# To identify novel antagonists of RORgammaT, an assay was developed which employs the interaction of RORgammaT with its co-activator peptide SRC1_2. […] The assay was run following three slightly different protocols, i.e. Protocol A, Protocol B, and Protocol C, which are described below.
# TR-Fret Assay (Protocol B)
# HIS-tagged RORγ-LBD was recombinantly expressed in SF9 cells using a baculovirus expression system. The protein was not purified. Cells were lysed and the lysate was used as a source for RORγ-LBD for the assay. A 1:80 dilution of RORγ-LBD lysate in assay buffer (25 mM HEPES pH 7.0, 100 mM NaCl, 0.01% Tween, 0.1% BSA) was prepared and 5 μL was added to each well (RORγ-LBD final concentration ˜10 nM). Control wells received lysate from SF9 cells not expressing RORγ-LBD.
# Compounds to be tested were diluted to 100× final test concentration in DMSO and further diluted to 4× final test concentration using assay buffer to provide the test compound mixture. An aliquot (5 μL) of the test compound mixture was added to each well.
row,SMILES,IC50
1,"CC(C)c1cc(-c2nn(C(=O)c3c(Cl)cccc3C(F)(F)F)c3ccccc23)ccc1C(=O)O [Example 24AP, 4-(1-(2-chloro-6-(trifluoromethyl)-benzoyl)-1H-indazol-3-yl)-2-isopropylbenzoic acid]",500 to 10000 nM
2,"O=C(O)c1ccc(-c2nn(C(=O)c3c(Cl)cccc3C(F)(F)F)c3ccccc23)cc1F [Example 24AQ, sodium 4-(1-(2-chloro-6-(trifluoromethyl)-benzoyl)-1H-indazol-3-yl)-2-fluoro benzoate]",< 50 nM
3,"O=C(O)c1ccc(-c2nn(C(=O)c3c(Cl)cccc3C(F)(F)F)c3ccccc23)c(F)c1 [Example 24AR, sodium 4-(1-(2-chloro-6-(trifluoromethyl)-benzoyl)-1H-indazol-3-yl)-3-fluoro benzoate]",< 50 nM
4,"COc1cccc(F)c1C(=O)n1nc(-c2ccc(C(=O)O)cc2F)c2ccccc21 [Example 24AT, 3-fluoro-4-(1-(2-fluoro-6-methoxybenzoyl)-1H-indazol-3-yl)benzoic acid]",< 50 nM
5,"O=C(O)c1ccc(-c2nn(C(=O)c3c(Cl)cccc3C(F)(F)F)c3cc(Br)cc(F)c23)cc1 [Example 24AX, 4-(6-bromo-1-(2-chloro-6-(trifluoromethyl)-benzoyl)-4-fluoro-1H-indazol-3-yl) benzoic acid]",< 50 nM
6,"COc1cc(F)c2c(-c3ccc(C(=O)O)cc3)nn(C(=O)c3c(Cl)cccc3C(F)(F)F)c2c1 [Example 24AZ, 4-(1-(2-chloro-6-(trifluoromethyl)-benzoyl)-4-fluoro-6-methoxy-1H-indazol-3-yl) benzoic acid]",50 to 500 nM
7,"O=C(O)c1ccc(-c2nn(C(=O)c3c(Cl)cccc3C(F)(F)F)c3cc(O)ccc23)cc1 [Example 24BA, 4-(1-(2-chloro-6-(trifluoromethyl)-benzoyl)-6-hydroxy-1H-indazol-3-yl)benzoic acid]",< 50 nM
8,"O=C(O)c1ccc(-c2nn(C(=O)c3c(Cl)cccc3C(F)(F)F)c3cc(O)ccc23)c(F)c1 [Example 24BB, 4-(1-(2-chloro-6-(trifluoromethyl)-benzoyl)-6-hydroxy-1H-indazol-3-yl)-3-fluorobenzoic acid]",< 50 nM
9,"O=C(O)c1ccc(-c2nn(C(=O)c3c(Cl)cccc3C(F)(F)F)c3cc(O)cc(F)c23)cc1 [Example 24BC, 4-(1-(2-chloro-6-(trifluoromethyl)-benzoyl)-4-fluoro-6-hydroxy-1H-indazol-3-yl)benzoic acid]",500 to 10000 nM
10,"O=C(O)c1ccc(-c2nn(C(=O)c3c(Cl)cccc3C(F)(F)F)c3cc(O)cc(F)c23)c(F)c1 [Example 24BD, 4-(1-(2-chloro-6-(trifluoromethyl)-benzoyl)-4-fluoro-6-hydroxy-1H-indazol-3-yl)-3-fluorobenzoic acid]",500 to 10000 nM
11,"O=C(O)c1ccc(-c2nn(C(=O)c3c(Cl)cccc3C(F)(F)F)c3cc(CO)ccc23)cc1 [Example 24BE, 4-(1-(2-chloro-6-(trifluoromethyl)-benzoyl)-6-(hydroxymethyl)-1H-indazol-3-yl)benzoic acid]",< 50 nM
12,"O=C(O)c1ccc(-c2nn(C(=O)c3c(Cl)cccc3C(F)(F)F)c3cc(CO)ccc23)c(F)c1 [Example 24BF, 4-(1-(2-chloro-6-(trifluoromethyl)-benzoyl)-6-(hydroxymethyl)-1H-indazol-3-yl)-3-fluorobenzoic acid]",< 50 nM
13,"O=C(O)c1ccc(-c2nn(C(=O)c3c(Cl)cccc3C(F)(F)F)c3cccnc23)c(F)c1 [Example 24C, sodium 4-(1-(2-chloro-6-(trifluoromethyl)benzoyl)-1H-pyrazolo[4,3-b]pyridin-3-yl)-3-fluorobenzoate]",< 50 nM
14,"O=C(c1c(Cl)cccc1C(F)(F)F)n1nc(-c2ccc(C(O)(C(F)(F)F)C(F)(F)F)cc2)c2c(F)cccc21 [Example 24D, (2-chloro-6-(tri-fluoromethyl)-phenyl)(4-fluoro-3-(4-(1,1,1,3,3,3-hexafluoro-2-hydroxypropan-2-yl)phenyl)-1H-indazol-1-yl)methanone]",500 to 10000 nM
